Experimental data as given in PMC7827406, “Structure–Activity Relationship (SAR) Study of Spautin-1 to Entail the Discovery of Novel NEK4 Inhibitors” (International Journal of Molecular Sciences, 2021).
Like-named read-outs stand apart in the source and are kept apart here.

Key:
Test in all cases: biochemical
Parameters in all cases: Eurofins KinaseProfiler full panel at Km ATP, residual kinase activity (%) relative to DMSO
CaMKIδ(h) = target: T1, CaMKIδ(h) (Homo sapiens, UniProt Q8IU85)
T1 construct: gene CAMK1D
T1 sequence (Q8IU85 whole entry): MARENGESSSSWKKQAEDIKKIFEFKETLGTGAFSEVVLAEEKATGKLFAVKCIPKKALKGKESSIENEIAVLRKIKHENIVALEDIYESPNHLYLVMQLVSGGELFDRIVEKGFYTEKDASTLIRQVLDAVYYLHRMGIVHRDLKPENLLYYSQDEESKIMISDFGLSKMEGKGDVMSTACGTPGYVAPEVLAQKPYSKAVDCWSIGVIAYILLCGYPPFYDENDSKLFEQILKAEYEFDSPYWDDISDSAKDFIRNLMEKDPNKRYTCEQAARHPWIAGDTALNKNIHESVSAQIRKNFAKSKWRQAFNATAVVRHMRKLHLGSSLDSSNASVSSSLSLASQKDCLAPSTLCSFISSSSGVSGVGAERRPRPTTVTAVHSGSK
Procedure, shortened: (§1)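 Compounds screened at 10 µM in radiometric kinase activity assays at Km ATP, reported as remaining kinase activity (%). A KINOMEscan competition-binding screen at 10 µM measured DNA-tagged kinase retained on immobilized active-site ligand by qPCR.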

CK1δ(h) = target: T2, CK1δ(h) (Homo sapiens, UniProt P48730)
T2 construct: gene CSNK1D
T2 sequence (P48730 whole entry): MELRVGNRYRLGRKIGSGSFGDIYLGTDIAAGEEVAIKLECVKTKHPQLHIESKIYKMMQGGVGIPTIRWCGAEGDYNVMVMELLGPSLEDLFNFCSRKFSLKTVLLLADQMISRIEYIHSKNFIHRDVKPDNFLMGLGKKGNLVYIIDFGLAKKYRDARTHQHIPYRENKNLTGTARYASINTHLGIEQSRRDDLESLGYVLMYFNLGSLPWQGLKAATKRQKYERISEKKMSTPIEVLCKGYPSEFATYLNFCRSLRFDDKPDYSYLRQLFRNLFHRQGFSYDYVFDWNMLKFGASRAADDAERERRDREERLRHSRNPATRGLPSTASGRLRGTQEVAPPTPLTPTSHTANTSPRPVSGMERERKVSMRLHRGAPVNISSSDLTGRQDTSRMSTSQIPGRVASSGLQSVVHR
Procedure, shortened: as §1

DDR2(h) = target: T3, DDR2(h) (Homo sapiens, UniProt Q16832)
T3 sequence (Q16832 1-855): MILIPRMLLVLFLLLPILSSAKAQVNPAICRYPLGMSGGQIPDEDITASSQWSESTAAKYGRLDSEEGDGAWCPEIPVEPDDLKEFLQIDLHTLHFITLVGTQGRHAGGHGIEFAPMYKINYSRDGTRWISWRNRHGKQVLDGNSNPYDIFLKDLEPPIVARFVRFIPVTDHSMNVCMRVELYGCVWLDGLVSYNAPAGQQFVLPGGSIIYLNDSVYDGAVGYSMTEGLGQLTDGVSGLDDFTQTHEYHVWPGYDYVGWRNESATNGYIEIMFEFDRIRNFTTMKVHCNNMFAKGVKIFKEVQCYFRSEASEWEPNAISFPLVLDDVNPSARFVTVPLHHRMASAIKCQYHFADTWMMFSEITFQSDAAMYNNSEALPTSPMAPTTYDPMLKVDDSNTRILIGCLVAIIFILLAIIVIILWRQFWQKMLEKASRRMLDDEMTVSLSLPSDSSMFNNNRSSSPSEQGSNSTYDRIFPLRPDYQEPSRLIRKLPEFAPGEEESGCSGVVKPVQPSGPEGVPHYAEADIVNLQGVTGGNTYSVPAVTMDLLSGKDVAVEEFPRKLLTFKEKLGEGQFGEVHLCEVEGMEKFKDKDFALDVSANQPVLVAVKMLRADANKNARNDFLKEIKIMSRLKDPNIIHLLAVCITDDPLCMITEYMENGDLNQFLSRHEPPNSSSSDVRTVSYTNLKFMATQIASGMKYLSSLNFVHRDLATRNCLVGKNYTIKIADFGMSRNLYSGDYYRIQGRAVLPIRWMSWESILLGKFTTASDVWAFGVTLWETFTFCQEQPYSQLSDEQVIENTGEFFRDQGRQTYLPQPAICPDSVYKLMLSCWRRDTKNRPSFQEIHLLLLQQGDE
Procedure, shortened: as §1

BRK(h) = target: T4, BRK(h) (Homo sapiens, UniProt Q13882)
T4 construct: gene PTK6
T4 sequence (Q13882 whole entry): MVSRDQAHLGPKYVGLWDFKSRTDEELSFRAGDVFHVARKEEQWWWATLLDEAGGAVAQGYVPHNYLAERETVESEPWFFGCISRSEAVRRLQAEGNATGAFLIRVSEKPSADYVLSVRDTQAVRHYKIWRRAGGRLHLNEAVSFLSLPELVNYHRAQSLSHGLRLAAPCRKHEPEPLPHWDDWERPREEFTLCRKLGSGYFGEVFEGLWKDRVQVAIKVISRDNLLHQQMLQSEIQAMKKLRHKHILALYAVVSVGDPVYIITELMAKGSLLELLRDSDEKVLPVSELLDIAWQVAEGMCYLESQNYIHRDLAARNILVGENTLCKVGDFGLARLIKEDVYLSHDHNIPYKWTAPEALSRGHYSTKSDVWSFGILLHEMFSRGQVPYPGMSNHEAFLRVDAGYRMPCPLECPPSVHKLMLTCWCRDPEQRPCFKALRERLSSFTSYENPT
Procedure, shortened: as §1

AMPKα1(h) = target: T5, AMPKα1(h) (Homo sapiens, UniProt Q13131)
T5 construct: gene PRKAA1
T5 sequence (Q13131 whole entry): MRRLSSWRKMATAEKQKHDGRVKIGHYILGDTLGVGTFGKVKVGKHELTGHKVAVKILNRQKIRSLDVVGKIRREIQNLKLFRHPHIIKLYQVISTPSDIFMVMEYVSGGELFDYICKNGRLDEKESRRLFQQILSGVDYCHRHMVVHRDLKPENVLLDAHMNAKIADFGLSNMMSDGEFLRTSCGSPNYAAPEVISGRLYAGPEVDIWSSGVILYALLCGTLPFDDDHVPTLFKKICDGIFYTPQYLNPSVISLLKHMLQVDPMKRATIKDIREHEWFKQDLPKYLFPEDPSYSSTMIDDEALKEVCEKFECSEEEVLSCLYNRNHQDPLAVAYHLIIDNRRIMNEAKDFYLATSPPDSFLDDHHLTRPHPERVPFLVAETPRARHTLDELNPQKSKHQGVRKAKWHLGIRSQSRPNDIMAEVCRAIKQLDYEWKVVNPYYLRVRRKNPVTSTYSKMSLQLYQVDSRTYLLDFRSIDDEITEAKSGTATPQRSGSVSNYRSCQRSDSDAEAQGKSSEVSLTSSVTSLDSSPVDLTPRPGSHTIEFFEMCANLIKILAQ
T5 sequence (P54619 whole entry partner): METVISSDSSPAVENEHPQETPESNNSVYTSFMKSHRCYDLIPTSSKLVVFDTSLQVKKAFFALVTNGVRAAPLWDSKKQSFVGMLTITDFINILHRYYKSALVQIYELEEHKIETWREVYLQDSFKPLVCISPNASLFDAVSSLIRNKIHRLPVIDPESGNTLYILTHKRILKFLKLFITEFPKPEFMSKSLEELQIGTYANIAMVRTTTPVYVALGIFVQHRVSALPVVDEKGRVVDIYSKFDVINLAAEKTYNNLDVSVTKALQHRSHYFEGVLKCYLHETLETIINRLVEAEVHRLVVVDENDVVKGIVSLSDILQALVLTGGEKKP
T5 sequence (Q9Y478 whole entry partner): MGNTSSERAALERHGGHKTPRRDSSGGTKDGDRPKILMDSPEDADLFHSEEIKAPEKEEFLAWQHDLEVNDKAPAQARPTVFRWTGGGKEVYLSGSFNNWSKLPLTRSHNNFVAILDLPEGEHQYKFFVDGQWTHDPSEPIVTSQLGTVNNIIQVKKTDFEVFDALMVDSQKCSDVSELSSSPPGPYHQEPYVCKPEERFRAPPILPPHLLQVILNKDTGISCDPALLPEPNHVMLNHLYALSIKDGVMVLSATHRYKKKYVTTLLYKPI
Procedure, shortened: as §1

PIP4K2a(h) = target: T6, PIP4K2a(h) (Homo sapiens, UniProt P48426)
T6 sequence (P48426 1-406): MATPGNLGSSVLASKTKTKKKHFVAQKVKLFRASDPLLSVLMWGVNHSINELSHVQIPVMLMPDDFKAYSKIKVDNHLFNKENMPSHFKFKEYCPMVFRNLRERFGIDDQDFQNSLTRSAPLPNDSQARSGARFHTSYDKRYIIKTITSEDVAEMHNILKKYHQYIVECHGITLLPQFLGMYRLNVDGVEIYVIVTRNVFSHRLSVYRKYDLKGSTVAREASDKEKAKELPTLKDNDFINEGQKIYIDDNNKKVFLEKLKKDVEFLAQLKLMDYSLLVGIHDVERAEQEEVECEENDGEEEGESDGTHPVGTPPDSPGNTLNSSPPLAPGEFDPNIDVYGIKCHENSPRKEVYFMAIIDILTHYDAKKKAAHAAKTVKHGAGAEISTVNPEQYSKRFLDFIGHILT
Procedure, shortened: as §1

MEKK2(h) = target: T7, MEKK2(h) (Homo sapiens, UniProt Q9Y2U5)
T7 construct: gene MAP3K2
T7 sequence (Q9Y2U5 1-619): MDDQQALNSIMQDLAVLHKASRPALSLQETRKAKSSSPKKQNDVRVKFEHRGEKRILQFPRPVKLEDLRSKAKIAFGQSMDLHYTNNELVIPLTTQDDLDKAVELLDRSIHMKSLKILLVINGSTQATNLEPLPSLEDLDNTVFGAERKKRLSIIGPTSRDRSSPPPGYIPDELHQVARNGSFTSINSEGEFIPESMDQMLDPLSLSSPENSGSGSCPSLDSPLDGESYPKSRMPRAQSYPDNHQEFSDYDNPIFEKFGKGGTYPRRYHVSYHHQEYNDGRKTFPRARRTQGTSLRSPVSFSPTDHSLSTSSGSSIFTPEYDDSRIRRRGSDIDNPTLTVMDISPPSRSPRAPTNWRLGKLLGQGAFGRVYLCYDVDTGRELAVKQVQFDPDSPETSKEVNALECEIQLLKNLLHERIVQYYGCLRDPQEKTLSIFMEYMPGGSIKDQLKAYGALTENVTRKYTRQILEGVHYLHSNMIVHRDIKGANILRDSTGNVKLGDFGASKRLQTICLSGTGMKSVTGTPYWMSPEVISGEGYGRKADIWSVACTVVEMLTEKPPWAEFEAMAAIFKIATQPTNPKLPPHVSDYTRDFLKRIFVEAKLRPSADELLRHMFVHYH
Procedure, shortened: as §1

[1] = read-out: Residual activity (%) Spautin-1 5aa
[2] = read-out: Residual activity (%) 5as
[3] = read-out: Residual activity (%) 5at
[4] = read-out: Residual activity (%) 5ay

Fc1ccc(CNc2ncnc3ccc(F)cc23)cc1 [5aa, 6-Fluoro-N-(4-fluorobenzyl)-4-Quinazolinamine]
remaining activity at 10 µM (CaMKIδ(h); [1]): 91% | remaining activity at 10 µM (CK1δ(h); [1]): 74% | remaining activity at 10 µM (DDR2(h); [1]): 87% | remaining activity at 10 µM (BRK(h); [1]): 105% | remaining activity at 10 µM (AMPKα1(h); [1]): 110% | remaining activity at 10 µM (PIP4K2a(h); [1]): 93% | remaining activity at 10 µM (MEKK2(h); [1]): 113%

Fc1ccc(CCNc2ncnc3ccc(F)cc23)cc1 [5as, 6-Fluoro-N-[2-(4-Fluorophenyl)Ethyl]-4-Quinazolinamine]
remaining activity at 10 µM (CaMKIδ(h); [2]): 90% | remaining activity at 10 µM (CK1δ(h); [2]): 80% | remaining activity at 10 µM (DDR2(h); [2]): 80% | remaining activity at 10 µM (BRK(h); [2]): 87% | remaining activity at 10 µM (AMPKα1(h); [2]): 93% | remaining activity at 10 µM (PIP4K2a(h); [2]): 96% | remaining activity at 10 µM (MEKK2(h); [2]): 99%

Fc1ccc2ncnc(NCCc3ccc(Cl)cc3)c2c1 [5at, N-[2-(4-Chlorophenyl)Ethyl]-6-Fluoro-4-Quinazolinamine]
remaining activity at 10 µM (CaMKIδ(h); [3]): 92% | remaining activity at 10 µM (CK1δ(h); [3]): 80% | remaining activity at 10 µM (DDR2(h); [3]): 82% | remaining activity at 10 µM (BRK(h); [3]): 96% | remaining activity at 10 µM (AMPKα1(h); [3]): 85% | remaining activity at 10 µM (PIP4K2a(h); [3]): 92% | remaining activity at 10 µM (MEKK2(h); [3]): 102%

COc1ccc2ncnc(Nc3cccc(F)c3)c2c1 [5ay, N-(3-Fluorophenyl)-6-Methoxy-4-Quinazolinamine]
remaining activity at 10 µM (CaMKIδ(h); [4]): 89% | remaining activity at 10 µM (CK1δ(h); [4]): 86% | remaining activity at 10 µM (DDR2(h); [4]): 84% | remaining activity at 10 µM (BRK(h); [4]): 71% | remaining activity at 10 µM (AMPKα1(h); [4]): 100% | remaining activity at 10 µM (PIP4K2a(h); [4]): 102% | remaining activity at 10 µM (MEKK2(h); [4]): 108%
